Data taken from patent US9630914B2, “Multitarget FAAH and COX inhibitors and therapeutical uses thereof” (FONDAZIONE ISTITUTO ITALIANO DI TECNOLOGIA, priority 2012, dated 2017).
Where two headings read alike, the source gives them in different places.

Assays:
Type in all cases: biochemical
human recombinant COX-2 = human recombinant COX-2 (Homo sapiens (Human), UniProt P35354); assay: In vitro COX assay (COX Inhibitor Screening Assay Kit), COX-2
Experimental: (§1) COX activity was measured using a commercial kit (COX Inhibitor Screening Assay Kit—Cayman Chemical N. 560131) which includes both ovine COX-1 and human recombinant COX-2 enzymes. Inhibitors were pre-incubated with either ovine COX-1 or human COX-2 in order to screen isozyme-specific inhibition. Differently than described in the kit protocol, the reaction was carried out in the presence of 5 μM arachidonic acid while for the blank sample (no activity) the two enzymes were inactivated for 40 minutes at 100° C. It was then measured the amount of PGF2α produced by reduction with SnCl2 of COX-derived PGH2, via enzyme immunoassay (EIA) using a PG-specific antibody and competing with a PG-acetylcholinesterase conjugate.
(§2) Absorbance was measured at 412 nm with a Tecan Infinite M200 plate reader and data were processed according to manufacturer's instructions.
(§3) The median inhibitory concentrations (IC50) were determined by non-linear regression analysis of the Log [concentration]/response curves generated with mean replicate values using a four parameter Hill equation curve fitting with GraphPad Prism 5 (GraphPad Software Inc., CA-USA).

ovine COX-1 = ovine COX-1 (Ovis aries (Sheep), UniProt P05979); assay: In vitro COX assay (COX Inhibitor Screening Assay Kit), COX-1; conditions: 5 μM arachidonic acid
Sequence of ovine COX-1 (P05979 25-600): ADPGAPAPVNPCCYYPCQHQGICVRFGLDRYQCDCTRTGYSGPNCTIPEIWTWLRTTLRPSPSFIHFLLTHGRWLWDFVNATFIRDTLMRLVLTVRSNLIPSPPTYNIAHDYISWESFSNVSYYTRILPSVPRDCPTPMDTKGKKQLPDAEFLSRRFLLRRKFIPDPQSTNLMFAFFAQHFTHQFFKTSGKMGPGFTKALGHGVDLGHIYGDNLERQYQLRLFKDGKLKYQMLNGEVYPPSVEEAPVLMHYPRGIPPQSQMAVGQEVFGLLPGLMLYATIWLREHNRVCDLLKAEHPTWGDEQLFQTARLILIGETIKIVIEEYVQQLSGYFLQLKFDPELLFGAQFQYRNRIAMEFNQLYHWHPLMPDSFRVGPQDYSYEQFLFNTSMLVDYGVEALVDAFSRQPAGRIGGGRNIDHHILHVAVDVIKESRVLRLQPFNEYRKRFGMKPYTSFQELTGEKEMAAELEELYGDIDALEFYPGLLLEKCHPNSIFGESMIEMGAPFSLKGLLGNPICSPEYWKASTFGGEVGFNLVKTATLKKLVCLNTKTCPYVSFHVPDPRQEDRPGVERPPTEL
Experimental: as §1, §2, §3

Rat FAAH = Rat FAAH (Rattus norvegicus (Rat), UniProt P97612); assay: In vitro rat FAAH radiometric assay; conditions: rat brain homogenate; means of ≧3 experiments in duplicate
Sequence of Rat FAAH (P97612 whole entry): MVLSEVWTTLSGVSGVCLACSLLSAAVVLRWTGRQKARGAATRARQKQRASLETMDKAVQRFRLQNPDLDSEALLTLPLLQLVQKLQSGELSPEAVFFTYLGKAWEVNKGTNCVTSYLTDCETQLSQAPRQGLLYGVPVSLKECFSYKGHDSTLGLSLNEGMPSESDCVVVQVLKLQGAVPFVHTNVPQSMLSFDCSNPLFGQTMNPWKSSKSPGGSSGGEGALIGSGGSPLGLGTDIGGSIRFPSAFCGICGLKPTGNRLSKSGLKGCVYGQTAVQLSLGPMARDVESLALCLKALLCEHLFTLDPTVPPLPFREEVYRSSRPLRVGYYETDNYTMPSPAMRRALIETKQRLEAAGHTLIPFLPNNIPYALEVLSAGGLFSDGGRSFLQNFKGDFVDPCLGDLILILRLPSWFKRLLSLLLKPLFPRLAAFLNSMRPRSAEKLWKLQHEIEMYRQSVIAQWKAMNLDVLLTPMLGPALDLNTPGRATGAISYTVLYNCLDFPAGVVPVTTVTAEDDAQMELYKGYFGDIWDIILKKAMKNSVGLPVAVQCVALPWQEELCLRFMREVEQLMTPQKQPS
Experimental: In Vitro Rat FAAH Radiometric Assay
Rat FAAH was prepared from male Sprague Dawley rat brains, homogenized in a potter in 20 mM of Tris HCl pH 7.4, 0.32 M sucrose.
After 10 minutes of pre-incubation with test compounds, the reaction was started by adding of 50 μL of substrate and incubating for 30 min at 37° C. The substrate was prepared in assay buffer in order to achieve the final concentration of 1 μM arachidonoyl ethanolamide (Cayman Chemical N. 90050) and 0.6 nM anandamide [ethanolamine-1-^3H](American Radiolabeled Chemicals Inc., ART. 0626, conc. 1 mCi/mL, S.A. 60 Ci/mmol). The reaction was stopped by adding cold 1:1 CHCl3/MeOH. After 10 minutes of centrifugation (845×g at 4° C.) 600 μL of aqueous phase were transferred into scintillation vials previously filled with 3 mL of scintillation fluid (Ultima Gold™, Perkin Elmer Inc., Cat. 6013329). Radioactivity was measured by liquid scintillation counting (MicroBeta2 LumiJET Perkin Elmer Inc.).
as §3

human FAAH-1 = human FAAH-1 (Homo sapiens (Human), UniProt O00519); assay: In vitro human FAAH fluorescent assay; conditions: human FAAH-1 membrane preparation from HEK-293; means of ≧3 experiments
Sequence of human FAAH-1 (O00519 whole entry): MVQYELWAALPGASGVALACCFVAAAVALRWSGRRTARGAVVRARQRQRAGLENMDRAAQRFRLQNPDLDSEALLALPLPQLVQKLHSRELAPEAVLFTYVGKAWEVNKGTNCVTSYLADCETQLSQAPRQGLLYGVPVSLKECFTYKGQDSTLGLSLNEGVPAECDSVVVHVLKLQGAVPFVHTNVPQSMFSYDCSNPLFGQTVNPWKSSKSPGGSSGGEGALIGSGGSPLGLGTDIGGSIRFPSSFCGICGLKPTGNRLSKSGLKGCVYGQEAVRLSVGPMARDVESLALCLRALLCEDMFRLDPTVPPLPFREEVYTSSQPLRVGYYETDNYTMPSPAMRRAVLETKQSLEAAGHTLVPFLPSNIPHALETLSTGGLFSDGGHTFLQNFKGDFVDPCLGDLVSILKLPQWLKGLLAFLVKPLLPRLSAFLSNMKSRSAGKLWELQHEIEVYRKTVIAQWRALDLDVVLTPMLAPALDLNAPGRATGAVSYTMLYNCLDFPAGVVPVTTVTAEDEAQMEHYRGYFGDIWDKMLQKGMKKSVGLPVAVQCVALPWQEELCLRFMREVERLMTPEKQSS
Experimental: In Vitro Human FAAH Fluorescent Assay
Human recombinant FAAH was obtained from a HEK-293 FAAH-1 overexpressing stable cell line. Cells were grown in DMEM medium containing 10% FBS, 1% pen/strep, 1% glutamine and 500 μg/mL G418. To obtain membrane preparation cells were scraped off with cold phosphate-buffered saline (PBS) and collected by centrifugation (500×g, 10 minutes, 4° C.); the cell pellet was re-suspended in 20 mM Tris-HCl pH 7.4, 0.32 M sucrose, disrupted by sonication (10 pulses, 5 times) and centrifuged (800×g, 15 minutes, 4° C.); the collected supernatant was centrifuged at 105,000×g for 1 h at 4° C. and the pellet was re-suspended in PBS.
The background (no activity) samples were prepared using 180 μL of assay buffer without human FAAH-1 and 10 μL of DMSO. The reaction was then started by the addition of 10 μL of substrate (AMC arachidonyl amide, N. 10005098, Cayman Chemical) dissolved in ethanol and used at a final concentration of 2 μM. The reaction was carried out for 30 minutes at 37° C. and fluorescence was measured with a Tecan Infinite M200 nanoquant plate reader (excitation wavelength 350 nm/emission wavelength 460 nm).
as §3

[1] = 5 μM arachidonic acid, read-out: human COX-2 IC50

Sequence of human recombinant COX-2 (P35354 18-604): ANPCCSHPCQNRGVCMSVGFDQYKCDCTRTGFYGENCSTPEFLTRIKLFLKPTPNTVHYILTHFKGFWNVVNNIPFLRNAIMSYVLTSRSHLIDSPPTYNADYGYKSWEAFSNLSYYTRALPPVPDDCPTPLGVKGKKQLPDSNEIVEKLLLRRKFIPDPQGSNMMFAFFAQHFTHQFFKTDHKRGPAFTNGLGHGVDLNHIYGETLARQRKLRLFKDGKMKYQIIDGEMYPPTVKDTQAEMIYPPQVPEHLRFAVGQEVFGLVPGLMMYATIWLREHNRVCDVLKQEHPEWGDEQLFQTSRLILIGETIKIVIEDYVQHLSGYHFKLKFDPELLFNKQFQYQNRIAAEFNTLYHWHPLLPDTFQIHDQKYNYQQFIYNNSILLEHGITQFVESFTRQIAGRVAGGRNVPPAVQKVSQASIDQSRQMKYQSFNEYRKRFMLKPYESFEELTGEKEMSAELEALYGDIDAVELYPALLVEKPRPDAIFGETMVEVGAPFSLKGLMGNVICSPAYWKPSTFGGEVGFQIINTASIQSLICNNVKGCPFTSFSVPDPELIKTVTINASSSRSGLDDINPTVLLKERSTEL

Row | SMILES | IC50 (human recombinant COX-2) [nM] | IC50 (ovine COX-1) [nM] | IC50 (Rat FAAH) [nM] | IC50 (human FAAH-1) [nM] | IC50 (human recombinant COX-2; [1]) [nM]
1 | CCCCNC(=O)Oc1cccc(-c2ccc(C(C)C(=O)O)cc2F)c1 (stereo not shown) [Example 10, 2-[4-[3-(butylcarbamoyloxy)phenyl]-3-fluoro-phenyl]propanoic acid] | > 30000 | 260 | 7000 | 1500 | 
2 | CCCCCCCCNC(=O)Oc1cccc(-c2ccc(C(C)C(=O)O)cc2F)c1 (stereo not shown) [Example 14, 2-[3-fluoro-4-[3-(octylcarbamoyloxy)phenyl]phenyl]propanoic acid] |  | 990 | 2.6 | 4 | 29000
3 | CCCCCNC(=O)Oc1cccc(-c2ccc(C(C)C(=O)O)cc2F)c1 (stereo not shown) [Example 11, 2-[3-fluoro-4-[3-(pentylcarbamoyloxy)phenyl]phenyl]propanoic acid] |  | 20 | 570 | 92 | 160
4 | CC(C(=O)O)c1ccc(-c2cccc(OC(=O)NCCc3ccccc3)c2)c(F)c1 (stereo not shown) [Example 7, 2-[3-fluoro-4-[3-(phenethylcarbamoyloxy)phenyl]phenyl]propanoic acid] | > 30000 | 6300 | 170 | 70 | 
5 | CCCCCCCNC(=O)Oc1cccc(-c2ccc(C(C)C(=O)O)cc2F)c1 (stereo not shown) [Example 13, 2-[3-fluoro-4-[3-(heptylcarbamoyloxy)phenyl]phenyl]propanoic acid] |  | 370 | 11 | 6 | 320
6 | CCCCCCOC(=O)Nc1cccc(-c2ccc(C(C)C(=O)O)cc2F)c1 (stereo not shown) [Example 18, 2-[3-fluoro-4-[3-(hexoxycarbonylamino)phenyl]phenyl]propanoic acid] |  | 30 | 15000 | 21000 | 170
7 | CCCCCCNC(=O)Oc1cccc(-c2ccc(CC(=O)O)cc2F)c1 [Example 16, 2-[3-fluoro-4-[3-(hexylcarbamoyloxy)phenyl]phenyl]acetic acid] |  | 2100 | 63 | 16 | 240
8 | CC(C(=O)O)c1ccc(-c2cccc(OC(=O)NCCCc3ccccc3)c2)c(F)c1 (stereo not shown) [Example 8, 2-[3-fluoro-4-[3-(3-phenylpropylcarbamoyloxyl)phenyl]phenyl]propanoic acid] |  | 580 | 90 | 22 | 6200
9 | CCCCCCNC(=O)Oc1cccc(-c2ccc(C(C)C(=O)O)cc2F)c1 (single isomer, unassigned; (-)) [Example 19, (−)-2-[3-fluoro-4-[3-(hexylcarbamoyloxy)phenyl]phenyl]propanoic acid] |  | 13000 |  |  | 
10 | CC(C(=O)O)c1ccc(-c2cccc(OC(=O)NC3CCCCC3)c2)c(F)c1 (stereo not shown) [Example 1, 2-[4-[3-(cyclohexylcarbamoyloxy)phenyl]-3-fluoro-phenyl]propanoic acid] | > 30000 | 7900 | 8200 | 1800 | 
11 | CC(C(=O)O)c1ccc(-c2cccc(OC(=O)NCc3ccccc3)c2)c(F)c1 (stereo not shown) [Example 6, 2-[4-[3-(benzylcarbamoyloxy)phenyl]-3-fluoro-phenyl]propanoicacid] | > 30000 | 1300 | 4200 | 7200 | 
12 | CC(C(=O)O)c1ccc(-c2cccc(OC(=O)NCC3CCCCC3)c2)c(F)c1 (stereo not shown) [Example 4, 2-[4-[3-(cyclohexylmethylcarbamoyloxy)phenyl]-3-fluoro-phenyl]propanoic acid] | > 30000 | 600 | 360 | 280 | 
13 | CC(C(=O)O)c1ccc(-c2cccc(OC(=O)NC3CCCC3)c2)c(F)c1 (stereo not shown) [Example 2, 2-[4-[3-(cyclopentylcarbamoyloxy)phenyl]-3-fluoro-phenyl]propanoic acid] | > 30000 | 4400 | 4800 | 1800 | 
14 | CCCCCCNC(=O)Oc1cccc(-c2ccc(C(C)CO)cc2F)c1 (stereo not shown) [Example 15, [3-[2-fluoro-4-(2-hydroxy-1-methyl-ethyl)phenyl]phenyl]N-hexylcarbamate] | > 30000 | 1100 | 3.3 | 9.1 | 
15 | CCCCCCNC(=O)Oc1ccccc1-c1ccc(C(C)C(=O)O)cc1F (stereo not shown) [Example 17, 2-[3-fluoro-4-[2-(hexylcarbamoyloxy)phenyl]phenyl]propanoic acid] | > 30000 | 720 | 2200 | 740 | 
16 | CC(C(=O)O)c1ccc(-c2cccc(OC(=O)NCCCCc3ccccc3)c2)c(F)c1 (stereo not shown) [Example 9, 2-[3-fluoro-4-[3-(4-phenylbutylcarbamoyloxyl)phenyl]phenyl]propanoic acid] | > 30000 | 3700 | 27 | 13 | 
17 | CC(C(=O)O)c1ccc(-c2cccc(OC(=O)NCCC3CCCCC3)c2)c(F)c1 (stereo not shown) [Example 5, 2-[4-[3-(2-cyclohexylethylcarbamoyloxyl)phenyl]-3-fluoro-phenyl]propanoic acid] |  | 150 | 18 | 9 | 11000
18 | CCCCCCNC(=O)Oc1cccc(-c2ccc(C(C)C(=O)O)cc2F)c1 (single isomer, unassigned; (+)) [Example 20, (+)-2-[3-fluoro-4-[3-(hexylcarbamoyloxy)phenyl]phenyl]propanoic acid] |  | 0.01 |  |  | 
19 | CC(C)CNC(=O)Oc1cccc(-c2ccc(C(C)C(=O)O)cc2F)c1 (stereo not shown) [Example 3, 2-[3-fluoro-4-[3-(isobutylcarbamoyloxy)phenyl]phenyl]propanoic acid] | > 30000 | 8200 | 5600 | 1600 | 
